This note sets out measurements from article PMC8620242 (Journal of Advanced Research, 2021).

The target in the assay is nsp12 (Severe acute respiratory syndrome coronavirus 2, UniProt P0DTD1). Briefly: SPR binding to nsp12. Set-up: species or system SARS-CoV-2. (In general: Surface plasmon resonance follows binding to a sensor surface in real time, without labels.)

As usually defined, the Kd is the constant that tells how readily two partners part at equilibrium. Read a high Kd as a looser complex.

For `CC1(C)[C@@H](O)CC[C@]2(C)[C@H]3C(=O)C=C4[C@@H]5C[C@@](C)(C(=O)O)CC[C@]5(C)CC[C@@]4(C)[C@]3(C)CC[C@@H]12` [GA, glycyrrhetinic acid], binding was characterised by a dissociation constant (Kd) of 416 µM.
